The numbers were not newly measured in patent EP2103596A1, “Process for the preparation of N-(phenylethyl) anilines salts and solvates thereof useful as serotonin 5-HT6 antagonists” (priority 2008, dated 2009), which cites them from elsewhere.

Read-outs that look alike come from different tables or passages of the source.

The target in data set [1] is CYP2D6 (Homo sapiens, UniProt P10635).
Data set [2] deals with more than 70 tested receptors. The settings on record: selectivity versus more than 70 tested receptors.
The conditions of data set [3]: mice, sub-chronic dosing (10 and 30 mg/kg qd, i.p.).
The conditions of data set [4]: rats, sub-chronic dosing (10 and 30 mg/kg qd, i.p.).

Chain of CYP2D6 (P10635 whole entry): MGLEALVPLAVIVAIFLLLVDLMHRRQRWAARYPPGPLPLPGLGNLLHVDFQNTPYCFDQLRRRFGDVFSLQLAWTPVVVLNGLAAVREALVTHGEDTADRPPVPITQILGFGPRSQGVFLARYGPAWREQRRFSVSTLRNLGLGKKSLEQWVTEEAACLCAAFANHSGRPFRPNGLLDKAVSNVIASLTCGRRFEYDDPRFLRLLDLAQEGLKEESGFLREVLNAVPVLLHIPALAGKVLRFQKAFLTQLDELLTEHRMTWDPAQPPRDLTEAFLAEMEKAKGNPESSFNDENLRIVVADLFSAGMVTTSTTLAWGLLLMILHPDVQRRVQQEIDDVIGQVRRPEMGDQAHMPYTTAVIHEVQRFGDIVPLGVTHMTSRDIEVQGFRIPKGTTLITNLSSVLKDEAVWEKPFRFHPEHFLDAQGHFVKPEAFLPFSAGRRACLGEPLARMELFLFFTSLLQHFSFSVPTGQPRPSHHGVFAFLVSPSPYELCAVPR

As for `COc1cc(Cl)cc(C(C)Nc2cc(N3CCNCC3)ccc2S(C)(=O)=O)c1OC.Cl` (stereo not shown) [Compound A, [1-(5-Chloro-2,3-dimethoxy-phenyl)-ethyl]-(2-methanesulfonyl-5-piperazin-1-yl-phenyl)-amine hydrochloride salt], the “stability (HLM)” value is > 90 min. In data set [1], the IC50 is 7.8 µM. Also, the safety margin in data set [2] is given as > 100 fold. For the same molecule, in data set [3], the body weight entry is listed as “significant reduction” and the food intake entry is given as “significant reduction”. Moreover, in data set [4], the body weight result is recorded as “significant reduction” and the food intake entry was “significant reduction”.

The term IC50 denotes the concentration needed to halve the response being measured.
